Literature values in the PKSmart pharmacokinetics tables (Seal et al. 2025).
*1 amine or outer side, *2 acyl side, *3 side chain or, on linkers, in order; H or OH if unused. Where a SMILES comes first, the peptide text is derived from it. Bridges are numbered along the chain shown (N, C = ends). [ ]: non-standard residue; d: D form. The star is where a group is joined. ξ: configuration not given here. X2 = CC[C@H](C)[C@@H](N[*:1])[C@@H](O)CC(=O)OC(C(=O)C(C)C(=O)[*:2])C(C)C; ξThr(3R)(O-yl) = C[C@@H](O[*:3])C(N[*:1])C(=O)[*:2]; ξPro(4R-OH) = O=C(O)C1C[C@@H](O)CN1; ξNMeY = CNC(Cc1ccc(O)cc1)C(=O)O; ξ2Thi = NC(Cc1cccs1)C(=O)O; ξNMeL = CNC(CC(C)C)C(=O)O; ξR = N=C(N)NCCCC(N)C(=O)O; Iva = CC[C@](C)(N)C(=O)O; ξF = NC(Cc1ccccc1)C(=O)O; Pyruvoyl = CC(=O)C(=O)*; X3 = O=C(CCC[*:2])[*:1]; ξN = NC(=O)CC(N)C(=O)O; ξL = CC(C)CC(N)C(=O)O; ξP = O=C(O)C1CCCN1; ξC = NC(CS)C(=O)O

Assay: Lombardo, Berellini, Obach 2018, Drug Metab Dispos 46:1466, doi 10.1124/dmd.118.082966
Conditions: human; for MRT / Vd / clearance / half-life: in vivo, iv; for fraction unbound: plasma

For COCCCN1CCC(NC(=O)c2cc(Cl)c(N)c3c2OCC3)CC1, the MRT is given as 32.2 h, the Vd is given as 8.73 L/kg and the clearance is given as 4.55 mL/min/kg. For the same compound, the half-life was 22.5 h and the fraction unbound was 0.7.

For C[C@H]1[C@H](C)CC[C@]2(C(=O)O)CC[C@@]3(C)C(=CC[C@@H]4[C@@]5(C)CC[C@H](O)C(C)(C)[C@@H]5CC[C@]43C)[C@H]12, the MRT is listed as 2.34 h, the clearance is listed as 3.87 mL/min/kg and the half-life is listed as 4.8 h.

For O=C(O)C1C[C@@H](C2CCCCC2)CN1C(=O)CP(=O)(O)CCCCc1ccccc1 (stereo not given in full), the MRT is listed as 6.8 h, the Vd is listed as 0.13 L/kg and the clearance is listed as 0.32 mL/min/kg. For the same compound, the half-life was 9.4 h.

In the case of O=C(O)C1N=C(c2ccccc2)c2cc(Cl)ccc2NC1=O (stereo not given), the MRT is listed as 3 h, the Vd is listed as 0.2 L/kg and the clearance is listed as 1.1 mL/min/kg. The half-life was 2.4 h.

For CCC(=O)NC[C@@H]1C[C@H]1c1cccc2c1CCO2, the MRT is given as 0.62 h, the Vd is given as 0.33 L/kg and the clearance is given as 9.04 mL/min/kg. For the same compound, the half-life was 0.75 h.

In the case of CN1CCN(c2ncc(-c3cc(Cl)cc(Cl)c3Cl)c(N)n2)CC1, the MRT is given as 12.3 h, the Vd is given as 15.3 L/kg and the clearance is given as 20.9 mL/min/kg. The half-life was 11 h.

In the case of CCNC(=O)CCC/C=C\C[C@@H]1[C@@H](/C=C\[C@@H](O)CCc2ccccc2)[C@H](O)C[C@@H]1O, the Vd is given as 0.67 L/kg, the clearance is given as 25 mL/min/kg and the half-life is given as 0.45 h. The fraction unbound was 0.12.

In the case of CCOC(=O)[C@]1(c2ccccc2)CCC=C[C@H]1N(C)C, the MRT is given as 4.2 h, the Vd is given as 4 L/kg and the clearance is given as 16 mL/min/kg. For the same compound, the half-life was 5 h and the fraction unbound was 0.21.

In the case of O=C(NC[C@H]1CN(c2ccc(N3CCOCC3=O)cc2)C(=O)O1)c1ccc(Cl)s1, the MRT is listed as 4.9 h, the Vd is listed as 0.7 L/kg and the clearance is listed as 2.4 mL/min/kg. For the same compound, the half-life was 7 h and the fraction unbound was 0.06.

For CN1[C@@H]2C[C@@H](OC(=O)C(CO)c3ccccc3)C[C@H]1[C@@H]1O[C@@H]12 (stereo not given in full), the MRT is listed as 3.2 h.

For Cc1ncsc1CCCl, the MRT is listed as 3.3 h, the Vd is listed as 6.6 L/kg and the clearance is listed as 33 mL/min/kg. For the same compound, the half-life was 4.5 h and the fraction unbound was 0.36.

For CC(=O)O[C@H]1C[C@]2(O)[C@H]3CC[C@H]4C[C@H](O[C@H]5C[C@@H](O)[C@@H](O[C@H]6C[C@@H](O)[C@@H](O[C@H]7C[C@@H](O)[C@@H](O)[C@H](C)O7)[C@H](C)O6)[C@H](C)O5)CC[C@@]4(C)[C@H]3CC[C@]2(C)[C@H]1C1=CC(=O)OC1, the MRT is listed as 72.3 h, the Vd is listed as 0.78 L/kg and the clearance is listed as 8.7 mL/min/kg. The half-life was 51.6 h and the fraction unbound was 0.07.

For O=C(O)C1=C(C[n+]2ccc(CCS(=O)(=O)[O-])cc2)CSC2C(NC(=O)C(NC(=O)c3[nH]cnc3C(=O)O)c3ccccc3)C(=O)N12 (stereo not given), the MRT is listed as 2.1 h, the Vd is listed as 0.21 L/kg and the clearance is listed as 1.7 mL/min/kg. The half-life was 1.8 h.

In the case of CC(C)(C)[N+](O)=Cc1ccc(S(=O)(=O)O)cc1S(=O)(=O)[O-], the MRT is given as 2.2 h, the Vd is given as 0.18 L/kg and the clearance is given as 1.35 mL/min/kg. For the same compound, the half-life was 3.6 h and the fraction unbound was 0.6.

In the case of COc1cc2nc(N(C)CCCNC(=O)C3CCCO3)nc(N)c2cc1OC (stereo not given), the MRT is listed as 4.2 h, the Vd is listed as 1.5 L/kg and the clearance is listed as 5.9 mL/min/kg. For the same compound, the half-life was 4.8 h and the fraction unbound was 0.14.

For CN(C)CCNC(=O)c1cccc2cc3ccccc3nc12, the MRT is given as 3.49 h, the Vd is given as 3.41 L/kg and the clearance is given as 16.3 mL/min/kg. The half-life was 2.08 h and the fraction unbound was 0.03.

In the case of OC[C@@H](O)[C@@H](O)[C@H](O)[C@H](O)CO, the MRT is listed as 3.5 h, the Vd is listed as 0.24 L/kg and the clearance is listed as 1.2 mL/min/kg. The half-life was 4.7 h.

For CC(=O)OCC1=C(C(=O)O)N2C(=O)C(NC(=O)CC#N)[C@H]2SC1 (stereo not given in full), the MRT is listed as 2.21 h, the Vd is listed as 0.49 L/kg and the clearance is listed as 3.69 mL/min/kg. For the same compound, the half-life was 2.02 h.

For COc1ccc2c(c1)N(C[C@H](C)CN(C)C)c1ccccc1S2, the MRT is given as 21 h, the Vd is given as 12 L/kg and the clearance is given as 9.9 mL/min/kg. For the same compound, the half-life was 30 h.

For CCOC(=O)C(CCc1ccccc1)NC(C)C(=O)N1C(C(=O)O)C[C@H]2CCCC[C@H]21 (stereo not given in full), the fraction unbound is given as 0.17.

In the case of C#Cc1cccc(Nc2ncnc3cc(OCCOC)c(OCCOC)cc23)c1, the MRT is given as 7.55 h, the Vd is given as 0.77 L/kg and the clearance is given as 1.69 mL/min/kg. The half-life was 6.5 h and the fraction unbound was 0.07.

In the case of COCCn1c2c([n+](Cc3cnccn3)c1C)C(=O)c1ccccc1C2=O, the MRT is given as 34.5 h, the Vd is given as 23.7 L/kg and the clearance is given as 11.3 mL/min/kg. For the same compound, the half-life was 24.8 h.

In the case of CC[C@H](C)[C@H]1NC(=O)C(NC(=O)C(CC(C)C)N(C)C(=O)C2CCCN2C(=O)C(C)=O)[C@@H](C)OC(=O)C(Cc2ccc(OC)cc2)N(C)C(=O)C2CCCN2C(=O)C(CC(C)C)NC(=O)C(C)C(=O)C(C(C)C)OC(=O)C[C@@H]1O (stereo partly drawn) (Pyruvoyl-[ξP][ξNMeL][ξThr(3R)(O-yl)][X2][ξL][ξP][ξNMeY](Me); ester 3-C), the MRT is listed as 14.5 h, the Vd is listed as 6.95 L/kg and the clearance is listed as 8.05 mL/min/kg. The half-life was 16.6 h.

For N#Cc1ccc2c(c1)CN(S(=O)(=O)c1cccs1)[C@H](Cc1ccccc1)CN2Cc1cnc[nH]1, the MRT is listed as 1.4 h, the Vd is listed as 0.84 L/kg and the clearance is listed as 9.6 mL/min/kg. For the same compound, the half-life was 1.6 h and the fraction unbound was 0.01.

For CCCCC[C@@H](O)CC[C@H]1[C@@H]2Cc3cccc(OCC(=O)O)c3C[C@@H]2C[C@@H]1O, the MRT is listed as 0.36 h, the Vd is listed as 0.23 L/kg and the clearance is listed as 10.7 mL/min/kg. The half-life was 0.82 h and the fraction unbound was 0.09.

In the case of O=C(Cc1cccs1)NC1C(=O)N2C(C(=O)[O-])=C(C[n+]3ccccc3)CS[C@H]12 (stereo not given in full), the MRT is given as 2.3 h, the Vd is given as 0.46 L/kg and the clearance is given as 3.3 mL/min/kg. For the same compound, the half-life was 1.5 h and the fraction unbound was 0.8.

For CCCOC(C(=O)OC1CCN(C)CC1)(c1ccccc1)c1ccccc1, the MRT is given as 15.4 h, the Vd is given as 2.73 L/kg and the clearance is given as 2.94 mL/min/kg. For the same compound, the half-life was 15.2 h and the fraction unbound was 0.1.

In the case of CC1C(=O)O[C@H]2[C@H](O)C34[C@H]5C[C@@H](C(C)(C)C)C36C(O)C(=O)O[C@H]6OC4(C(=O)O5)[C@@]12O (stereo not given in full), the MRT is given as 6.6 h, the Vd is given as 0.91 L/kg and the clearance is given as 2.3 mL/min/kg. For the same compound, the half-life was 5.2 h and the fraction unbound was 0.8.

For CC[C@]1(C)NC(=O)C(Cc2cccs2)NC(=O)C(Cc2ccccc2)NC(=O)CCCSCC(C(=O)N2C[C@H](O)CC2C(=O)NC(CCCNC(=N)N)C(=O)NCC(N)=O)NC(=O)C(CC(N)=O)NC1=O (stereo partly drawn) ([ξF][ξ2Thi][Iva][ξN][ξC][ξPro(4R-OH)][ξR]G-NH2; linker N-5 via X3), the MRT is given as 5.63 h, the Vd is given as 0.31 L/kg and the clearance is given as 0.87 mL/min/kg. For the same compound, the half-life was 4.28 h.

For Cc1ccc(N(CC2=NCCN2)c2cccc(O)c2)cc1, the clearance is listed as 42 mL/min/kg and the half-life is listed as 2.5 h.

For CC1(C)O[C@@H]2[C@@H](CO[C@@]3(COS(N)(=O)=O)OC(C)(C)O[C@@H]23)O1, the MRT is listed as 48.7 h, the Vd is listed as 0.8 L/kg and the clearance is listed as 0.27 mL/min/kg. The half-life was 34.8 h and the fraction unbound was 0.72.

For CCCC[P@@](=O)(O)CCCN, the clearance is listed as 1.56 mL/min/kg and the half-life is listed as 2.1 h.

In the case of CCOC(=O)Nc1ccc(NCc2ccc(F)cc2)nc1N, the MRT is given as 11 h, the Vd is given as 1.1 L/kg and the clearance is given as 1.6 mL/min/kg. The half-life was 8.5 h.

For CC[C@H](CC[C@@H](C)[C@H]1CC[C@H]2[C@@H]3CC=C4C[C@@H](O)CC[C@]4(C)[C@H]3CC[C@]12C)C(C)C, the MRT is given as 250 h, the Vd is given as 0.3 L/kg and the clearance is given as 0.02 mL/min/kg. For the same compound, the half-life was 372 h.

In the case of CCC(C)C(=O)O[C@H]1C[C@@H](C)C=C2C=C[C@H](C)[C@H](CC[C@@H](O)C[C@@H](O)CC(=O)O)[C@H]21 (stereo not given in full), the MRT is listed as 1.3 h, the Vd is listed as 0.87 L/kg and the clearance is listed as 7.2 mL/min/kg. The half-life was 1.4 h and the fraction unbound was 0.043.
